Experimental data: PubChem BioAssay (NCI)
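Protocol summary: plate cells (96-well), add compound at 5 concentrations, incubate 48 h, interpolate endpoints linearly. GI50 = concentration required for 50% inhibition of growth. TGI: total growth inhibition.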

Key:
Assay in all cases: NCI tumour cell line growth inhibition, 48 h
PC-3 prostate = test system: PC-3 prostate
COLO 205 colon = test system: COLO 205 colon
IGROV1 ovarian = test system: IGROV1 ovarian
SK-OV-3 ovarian = test system: SK-OV-3 ovarian
SR leukemia = test system: SR leukemia
NCI-H226 lung = test system: NCI-H226 lung
U251 CNS = test system: U251 CNS
T-47D breast = test system: T-47D breast
MOLT-4 leukemia = test system: MOLT-4 leukemia
SF-268 CNS = test system: SF-268 CNS

COC(=O)COc1ccccc1/C=C1/N=C(c2ccccc2)N(c2c(C)n(C)n(-c3ccccc3)c2=O)C1=O
GI50 (PC-3 prostate): > 100 µM | TGI (PC-3 prostate): > 100 µM | GI50 (COLO 205 colon): > 100 µM | TGI (COLO 205 colon): > 100 µM | GI50 (IGROV1 ovarian): 46.1 µM | TGI (IGROV1 ovarian): > 100 µM | GI50 (SK-OV-3 ovarian): > 100 µM | TGI (SK-OV-3 ovarian): > 100 µM | GI50 (SR leukemia): 31.7 µM | TGI (SR leukemia): > 100 µM | GI50 (NCI-H226 lung): > 100 µM | TGI (NCI-H226 lung): > 100 µM | GI50 (U251 CNS): > 100 µM | TGI (U251 CNS): > 100 µM | GI50 (T-47D breast): 30.5 µM | TGI (T-47D breast): > 100 µM | GI50 (MOLT-4 leukemia): > 100 µM | TGI (MOLT-4 leukemia): > 100 µM | GI50 (SF-268 CNS): > 100 µM | TGI (SF-268 CNS): > 100 µM

Oc1ccc(/C=N/NC(=S)Nc2ccccc2)nc1
GI50 (PC-3 prostate): 0.706 µM | TGI (PC-3 prostate): > 100 µM | GI50 (COLO 205 colon): 3.31 µM | TGI (COLO 205 colon): > 100 µM | GI50 (IGROV1 ovarian): 3.68 µM | TGI (IGROV1 ovarian): > 100 µM | GI50 (SK-OV-3 ovarian): 0.748 µM | TGI (SK-OV-3 ovarian): 32.6 µM | GI50 (SR leukemia): 0.582 µM | TGI (SR leukemia): > 100 µM | GI50 (NCI-H226 lung): 2.33 µM | TGI (NCI-H226 lung): 6.83 µM | GI50 (U251 CNS): 0.65 µM | TGI (U251 CNS): 81.8 µM | GI50 (T-47D breast): 1.54 µM | TGI (T-47D breast): > 100 µM | GI50 (MOLT-4 leukemia): 3.26 µM | TGI (MOLT-4 leukemia): > 100 µM | GI50 (SF-268 CNS): 0.969 µM | TGI (SF-268 CNS): > 100 µM

COc1ccc(-c2cc(-c3ccc(Cl)cc3)nc(SCCCC(=O)NO)n2)cc1OC
GI50 (PC-3 prostate): 0.944 µM | TGI (PC-3 prostate): 3.03 µM | GI50 (COLO 205 colon): 1.73 µM | TGI (COLO 205 colon): 5.06 µM | GI50 (IGROV1 ovarian): 1.04 µM | TGI (IGROV1 ovarian): 2.69 µM | GI50 (SK-OV-3 ovarian): 1.54 µM | TGI (SK-OV-3 ovarian): 4.58 µM | GI50 (SR leukemia): 0.354 µM | TGI (SR leukemia): > 100 µM | GI50 (NCI-H226 lung): 1.2 µM | TGI (NCI-H226 lung): 5.43 µM | GI50 (U251 CNS): 0.799 µM | TGI (U251 CNS): 7.34 µM | GI50 (T-47D breast): 1.88 µM | TGI (T-47D breast): 18.1 µM | GI50 (MOLT-4 leukemia): 0.855 µM | TGI (MOLT-4 leukemia): 12.5 µM | GI50 (SF-268 CNS): 1.28 µM | TGI (SF-268 CNS): 3.81 µM

Cc1ncnc2c1ccn2[C@@H]1C[C@H](Oc2cc(C(F)F)c(F)c3c2CNCC3)[C@@H](O)[C@H]1O
GI50 (PC-3 prostate): > 100 µM | TGI (PC-3 prostate): > 100 µM | GI50 (COLO 205 colon): > 100 µM | TGI (COLO 205 colon): > 100 µM | GI50 (IGROV1 ovarian): > 100 µM | TGI (IGROV1 ovarian): > 100 µM | GI50 (SK-OV-3 ovarian): > 100 µM | TGI (SK-OV-3 ovarian): > 100 µM | GI50 (SR leukemia): > 100 µM | TGI (SR leukemia): > 100 µM | GI50 (NCI-H226 lung): > 100 µM | TGI (NCI-H226 lung): > 100 µM | GI50 (U251 CNS): > 100 µM | TGI (U251 CNS): > 100 µM | GI50 (T-47D breast): > 100 µM | TGI (T-47D breast): > 100 µM | GI50 (MOLT-4 leukemia): > 100 µM | TGI (MOLT-4 leukemia): > 100 µM | GI50 (SF-268 CNS): > 100 µM | TGI (SF-268 CNS): > 100 µM

Oc1c(Cl)cc(Cl)c(Cl)c1Cc1c(O)c(Cl)cc(Cl)c1Cl
GI50 (PC-3 prostate): 0.498 µM | TGI (PC-3 prostate): 10.6 µM | GI50 (COLO 205 colon): 2.68 µM | TGI (COLO 205 colon): 15 µM | GI50 (IGROV1 ovarian): 1.87 µM | TGI (IGROV1 ovarian): 23.6 µM | GI50 (SK-OV-3 ovarian): 2.53 µM | TGI (SK-OV-3 ovarian): 11.6 µM | GI50 (SR leukemia): 1.19 µM | TGI (SR leukemia): > 100 µM | GI50 (NCI-H226 lung): 2.46 µM | TGI (NCI-H226 lung): 13 µM | GI50 (U251 CNS): 1.09 µM | TGI (U251 CNS): 12.7 µM | GI50 (T-47D breast): 2.41 µM | TGI (T-47D breast): 15 µM | GI50 (MOLT-4 leukemia): 1.31 µM | TGI (MOLT-4 leukemia): 36.1 µM | GI50 (SF-268 CNS): 1.08 µM | TGI (SF-268 CNS): 17.5 µM
